Data published in ChEMBL document CHEMBL1134226, “The amide hydrogen of (-)-indolactam-V and benzolactam-V8's plays a critical role in protein kinase C binding and tumor-promoting activities” (Bioorg Med Chem Lett, 2001).

What was measured:
HL-60 [1] = assay: Tested for superoxide (O2-) generation inducing activity in differentiated HL-60 cells at 10e-5 M; type: functional, Homo sapiens
HL-60 [2] = assay: Tested for superoxide (O2-) generation inducing activity in differentiated HL-60 cells at 10e-6 M; type: functional, Homo sapiens
HL-60 [3] = assay: Tested for superoxide (O2-) generation inducing activity in differentiated HL-60 cells at 10e-7 M; type: functional, Homo sapiens
[4] = molecular target: T1, Protein kinase C alpha type (Homo sapiens, UniProt P17252); assay: Inhibition of [3H]phorbol-12,13-dibutyrate (PDBu) binding to Protein kinase C alpha C1a domain
[5] = molecular target: T1, Protein kinase C alpha type; assay: Inhibition of [3H]phorbol-12,13-dibutyrate (PDBu) binding to Protein kinase C alpha C1b domain
[6] = molecular target: T2, Protein kinase C delta type (Homo sapiens, UniProt Q05655); assay: Inhibition of [3H]phorbol-12,13-dibutyrate (PDBu) binding to Protein kinase C delta C1a domain
[7] = molecular target: T3, Protein kinase C beta type (Homo sapiens, UniProt P05771); assay: Inhibition of [3H]phorbol-12,13-dibutyrate (PDBu) binding to Protein kinase C beta C1b domain
Target sequence in this assay (P05771 whole entry, looked up, the tested form may be a part): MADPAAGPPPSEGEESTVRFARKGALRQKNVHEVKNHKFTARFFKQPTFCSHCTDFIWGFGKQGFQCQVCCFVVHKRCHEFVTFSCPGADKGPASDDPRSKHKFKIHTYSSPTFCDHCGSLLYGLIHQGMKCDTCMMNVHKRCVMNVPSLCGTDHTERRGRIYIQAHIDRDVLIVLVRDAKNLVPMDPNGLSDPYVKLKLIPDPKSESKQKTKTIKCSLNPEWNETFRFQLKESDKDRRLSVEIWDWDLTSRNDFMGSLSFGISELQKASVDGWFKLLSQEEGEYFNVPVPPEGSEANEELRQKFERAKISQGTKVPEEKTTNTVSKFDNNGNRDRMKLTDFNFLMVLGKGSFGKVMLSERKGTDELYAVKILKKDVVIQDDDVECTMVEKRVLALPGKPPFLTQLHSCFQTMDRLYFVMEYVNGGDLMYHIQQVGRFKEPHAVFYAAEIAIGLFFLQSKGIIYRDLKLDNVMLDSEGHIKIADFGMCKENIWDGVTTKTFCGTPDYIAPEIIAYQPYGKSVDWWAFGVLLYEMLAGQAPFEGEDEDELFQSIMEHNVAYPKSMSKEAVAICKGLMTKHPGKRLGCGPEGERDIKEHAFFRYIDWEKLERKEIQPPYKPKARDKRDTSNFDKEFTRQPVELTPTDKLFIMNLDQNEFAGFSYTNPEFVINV

[8] = molecular target: T3, Protein kinase C beta type; assay: Inhibition of [3H]phorbol-12,13-dibutyrate (PDBu) binding to Protein kinase C beta C1a
Target sequence in this assay (P05771 whole entry, the tested form may be a part): as the sequence (P05771 whole entry, looked up, the tested form may be a part) above

[9] = molecular target: T2, Protein kinase C delta type; assay: Inhibition of [3H]phorbol-12,13-dibutyrate (PDBu) binding to Protein kinase C delta C1b domain
[10] = molecular target: Protein kinase C theta type (Homo sapiens, UniProt Q04759); assay: Inhibition of [3H]phorbol-12,13-dibutyrate (PDBu) binding to Protein kinase C theta C1b domain
[11] = molecular target: T4, Protein kinase C gamma type (Homo sapiens, UniProt P05129); assay: Inhibition of [3H]phorbol-12,13-dibutyrate (PDBu) binding to Protein kinase C gamma C1a domain
[12] = molecular target: T4, Protein kinase C gamma type; assay: Inhibition of [3H]phorbol-12,13-dibutyrate (PDBu) binding to Protein kinase C gamma C1b domain
[13] = molecular target: T5, Protein kinase C eta type (Homo sapiens, UniProt P24723); assay: Inhibition of [3H]phorbol-12,13-dibutyrate (PDBu) binding to Protein kinase C eta C1b domain
[14] = molecular target: T6, Protein kinase C epsilon type (Homo sapiens, UniProt Q02156); assay: Inhibition of [3H]phorbol-12,13-dibutyrate (PDBu) binding to Protein kinase C epsilon C1a domain
T6 sequence (Q02156 whole entry): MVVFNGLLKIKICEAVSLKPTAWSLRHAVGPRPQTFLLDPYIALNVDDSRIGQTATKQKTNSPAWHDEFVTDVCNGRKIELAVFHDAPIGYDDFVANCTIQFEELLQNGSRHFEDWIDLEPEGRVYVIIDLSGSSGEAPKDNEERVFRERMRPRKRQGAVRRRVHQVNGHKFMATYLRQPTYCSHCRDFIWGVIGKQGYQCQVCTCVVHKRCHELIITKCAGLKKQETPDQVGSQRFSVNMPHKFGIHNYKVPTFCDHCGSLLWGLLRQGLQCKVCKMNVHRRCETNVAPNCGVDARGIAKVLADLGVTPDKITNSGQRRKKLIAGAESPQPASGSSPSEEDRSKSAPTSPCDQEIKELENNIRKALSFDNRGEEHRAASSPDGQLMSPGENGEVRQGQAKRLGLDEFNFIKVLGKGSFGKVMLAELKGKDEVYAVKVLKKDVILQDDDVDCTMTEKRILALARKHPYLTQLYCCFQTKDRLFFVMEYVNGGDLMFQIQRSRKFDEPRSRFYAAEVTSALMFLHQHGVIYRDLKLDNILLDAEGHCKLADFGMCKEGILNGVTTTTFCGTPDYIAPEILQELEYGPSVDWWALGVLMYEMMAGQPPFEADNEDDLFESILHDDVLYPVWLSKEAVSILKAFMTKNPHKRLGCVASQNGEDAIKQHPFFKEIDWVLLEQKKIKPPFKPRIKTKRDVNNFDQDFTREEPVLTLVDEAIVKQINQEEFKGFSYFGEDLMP

[15] = molecular target: T6, Protein kinase C epsilon type; assay: Inhibition of [3H]phorbol-12,13-dibutyrate (PDBu) binding to Protein kinase C epsilon C1b domain
[16] = molecular target: T5, Protein kinase C eta type; assay: Inhibition of [3H]phorbol-12,13-dibutyrate (PDBu) binding to Protein kinase C eta C1a domain
Raji (Homo sapiens) [17] = assay: Tested for epstein barr virus early antigen (EBV-EA) inducing activity in Raji cells at 10e-6 M
Raji (Homo sapiens) [18] = assay: Tested for epstein barr virus early antigen (EBV-EA) inducing activity in Raji cells at 10e-5 M
Raji (Homo sapiens) [19] = assay: Tested for epstein barr virus early antigen (EBV-EA) inducing activity in Raji cells at 10e-4.5 M
HL-60 [20] = assay: Tested for superoxide (O2-) generation inducing activity in differentiated HL-60 cells at 10e-4 M; type: functional, Homo sapiens
HL-60 [21] = assay: Tested for epstein barr virus early antigen (EBV-EA) inducing activity in […] at 10e-7 M; type: functional, Homo sapiens

T5 sequence (P24723 whole entry, the tested form may be a part): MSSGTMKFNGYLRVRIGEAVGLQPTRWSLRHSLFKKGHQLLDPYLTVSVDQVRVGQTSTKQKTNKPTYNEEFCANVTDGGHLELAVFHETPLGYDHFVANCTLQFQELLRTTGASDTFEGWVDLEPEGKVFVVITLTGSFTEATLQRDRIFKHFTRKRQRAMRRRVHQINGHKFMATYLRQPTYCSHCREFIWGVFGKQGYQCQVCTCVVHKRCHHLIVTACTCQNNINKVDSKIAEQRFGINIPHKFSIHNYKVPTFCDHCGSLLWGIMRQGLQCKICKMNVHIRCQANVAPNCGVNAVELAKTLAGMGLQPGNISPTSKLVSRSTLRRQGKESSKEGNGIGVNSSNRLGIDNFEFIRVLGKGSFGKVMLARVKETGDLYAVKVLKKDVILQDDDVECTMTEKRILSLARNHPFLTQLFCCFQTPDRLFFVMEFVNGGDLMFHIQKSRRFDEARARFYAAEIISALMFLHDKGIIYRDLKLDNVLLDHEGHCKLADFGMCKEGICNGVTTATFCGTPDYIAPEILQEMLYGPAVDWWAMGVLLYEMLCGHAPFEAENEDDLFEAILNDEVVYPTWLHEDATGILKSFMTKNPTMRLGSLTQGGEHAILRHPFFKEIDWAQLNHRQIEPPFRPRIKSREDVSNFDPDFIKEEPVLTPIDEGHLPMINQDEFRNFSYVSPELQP
T2 sequence (Q05655 whole entry, the tested form may be a part): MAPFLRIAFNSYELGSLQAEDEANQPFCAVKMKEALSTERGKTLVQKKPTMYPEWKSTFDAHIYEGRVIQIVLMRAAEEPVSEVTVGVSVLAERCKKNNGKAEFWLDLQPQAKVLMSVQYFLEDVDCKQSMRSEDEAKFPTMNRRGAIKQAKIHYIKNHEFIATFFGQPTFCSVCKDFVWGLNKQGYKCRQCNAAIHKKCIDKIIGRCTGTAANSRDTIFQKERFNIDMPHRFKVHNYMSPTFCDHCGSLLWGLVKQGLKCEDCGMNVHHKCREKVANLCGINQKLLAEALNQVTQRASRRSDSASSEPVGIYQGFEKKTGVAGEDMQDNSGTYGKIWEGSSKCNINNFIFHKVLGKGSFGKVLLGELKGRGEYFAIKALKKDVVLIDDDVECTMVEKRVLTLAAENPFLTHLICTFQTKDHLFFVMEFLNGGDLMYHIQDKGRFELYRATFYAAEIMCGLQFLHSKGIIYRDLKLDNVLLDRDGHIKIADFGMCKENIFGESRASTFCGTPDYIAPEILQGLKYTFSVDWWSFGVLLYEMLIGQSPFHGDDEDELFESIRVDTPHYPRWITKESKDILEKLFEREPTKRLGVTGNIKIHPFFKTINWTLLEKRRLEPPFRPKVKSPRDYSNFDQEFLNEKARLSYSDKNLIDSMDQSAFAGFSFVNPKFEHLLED
Sequence of Protein kinase C theta type (Q04759 whole entry, the tested form may be a part): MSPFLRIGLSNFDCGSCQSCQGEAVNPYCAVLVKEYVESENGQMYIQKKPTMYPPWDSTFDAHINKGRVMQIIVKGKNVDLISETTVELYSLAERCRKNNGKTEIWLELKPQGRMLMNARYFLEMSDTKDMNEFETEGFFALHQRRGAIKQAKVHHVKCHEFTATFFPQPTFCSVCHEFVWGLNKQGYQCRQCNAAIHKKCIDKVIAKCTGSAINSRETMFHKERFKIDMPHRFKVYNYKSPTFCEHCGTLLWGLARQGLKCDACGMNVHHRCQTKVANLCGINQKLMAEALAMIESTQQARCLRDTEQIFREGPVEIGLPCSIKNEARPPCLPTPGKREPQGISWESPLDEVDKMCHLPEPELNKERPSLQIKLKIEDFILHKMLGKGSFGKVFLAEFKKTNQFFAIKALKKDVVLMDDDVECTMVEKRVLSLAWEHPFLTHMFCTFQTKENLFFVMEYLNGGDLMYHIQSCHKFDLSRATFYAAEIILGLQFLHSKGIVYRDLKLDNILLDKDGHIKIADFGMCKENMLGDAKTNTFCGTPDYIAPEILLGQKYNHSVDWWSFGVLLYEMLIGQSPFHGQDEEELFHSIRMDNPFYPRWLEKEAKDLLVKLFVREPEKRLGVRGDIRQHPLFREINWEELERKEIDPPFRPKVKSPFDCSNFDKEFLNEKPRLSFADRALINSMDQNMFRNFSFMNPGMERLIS

| Compound | Activity (HL-60 [1]) [nM min-1 ml-1] | Activity (HL-60 [2]) [nM min-1 ml-1] | Activity (HL-60 [3]) [nM min-1 ml-1] | Ki [4] [µM] | Ki [5] [µM] | Ki [6] [µM] | Ki [7] [µM] | Ki [8] [µM] | Ki [9] [µM] | Ki [10] [µM] | Ki [11] [µM] | Ki [12] [µM] | Ki [13] [µM] | Ki [14] [µM] | Ki [15] [µM] | Ki [16] [µM] | Activity (Raji (Homo sapiens) [17]) [%] | Activity (Raji (Homo sapiens) [18]) [%] | Activity (Raji (Homo sapiens) [19]) [%] | further results |
| --- | --- | --- | --- | --- | --- | --- | --- | --- | --- | --- | --- | --- | --- | --- | --- | --- | --- | --- | --- | --- |
| CCCCCCCCCCc1ccc2c(c1)C[C@@H](CO)NC(=O)[C@H](C(C)C)N2C | 3.04 | 0.31 | 0.33 | 0.323 | 4.69 | 2.77 | 0.261 | 0.442 | 0.0146 | 0.0132 | 1.66 | 0.151 | 0.0064 | 8.36 | 0.0131 | 2.49 | 6.7 | 11.3 | 17.6 | – |
| CCCCCCCCCCc1ccc2c(c1)C[C@@H](CO)OC(=O)[C@H](C(C)C)N2C | 0.2 | 0.11 | – | > 10 | > 10 | 70.6 | 22 | > 10 | 1.16 | 1.1 | 6.32 | 17.6 | 0.12 | > 10 | 0.262 | > 10 | 0.8 | 1.9 | 5 | Activity (HL-60 [20]): 0.19 nM min-1 ml-1 |
| CC(C)[C@H]1C(=O)N[C@H](CO)Cc2c[nH]c3cccc(c23)N1C [INDOLACTUM] | 3.18 | 3.19 | 0.05 | – | – | – | – | – | – | – | – | – | – | – | – | – | 33.5 | 28.9 | – | Activity (HL-60 [21]): 16.8% |
| CCCCCCCCCCCCCC(=O)O[C@@H]1[C@@H](C)[C@@]2(O)[C@@H](C=C(CO)C[C@]3(O)C(=O)C(C)=C[C@@H]23)[C@@H]2C(C)(C)[C@]12OC(C)=O [PHORBOL MYRISTATE ACETATE] | – | – | 1.32 | – | – | – | – | – | – | – | – | – | – | – | – | – | – | – | – | – |
